Measurements: publication PMC4685510, “A Cell Biologist’s Field Guide to Aurora Kinase Inhibitors” (Frontiers in Oncology, 2015)

Legend:
Assay in all cases: biochemical
Format in all cases: biochemical
[1] = target: T1, 363 human kinases (including Aurora A/B/C) (Homo sapiens, UniProt Q8IW41); details: MAPKAPK5/PRAK; for remaining activity at 0.1 µM: 100 nM; for remaining activity at 0.1 µM / remaining activity at 0.5 µM: read-out: % Enzyme Activity (relative to DMSO controls)
T1 sequence (Q8IW41 1-473): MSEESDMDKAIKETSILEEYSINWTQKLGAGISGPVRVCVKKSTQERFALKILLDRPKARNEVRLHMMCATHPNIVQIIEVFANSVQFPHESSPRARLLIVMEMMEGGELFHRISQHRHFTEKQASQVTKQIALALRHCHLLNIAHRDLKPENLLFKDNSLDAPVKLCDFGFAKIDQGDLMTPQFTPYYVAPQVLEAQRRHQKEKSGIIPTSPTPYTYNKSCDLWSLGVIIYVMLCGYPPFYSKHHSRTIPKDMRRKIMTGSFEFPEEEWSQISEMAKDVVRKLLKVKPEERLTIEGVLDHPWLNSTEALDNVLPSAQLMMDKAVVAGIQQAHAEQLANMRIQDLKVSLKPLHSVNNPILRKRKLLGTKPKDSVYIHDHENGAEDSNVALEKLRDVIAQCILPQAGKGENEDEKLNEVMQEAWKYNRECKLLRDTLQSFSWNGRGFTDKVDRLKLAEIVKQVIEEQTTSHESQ
From the text: (§1) However, the Aurora A/B selectivity ratios derived from our in vitro and in vivo data can be compared to prioritize inhibitors.

[2] = target: T2, 363 human kinases (including Aurora A/B/C) (Homo sapiens, UniProt Q86SG6); details: NEK8; for remaining activity at 0.1 µM: 100 nM; for remaining activity at 0.1 µM / remaining activity at 0.5 µM: read-out: % Enzyme Activity (relative to DMSO controls)
T2 sequence (Q86SG6 1-692): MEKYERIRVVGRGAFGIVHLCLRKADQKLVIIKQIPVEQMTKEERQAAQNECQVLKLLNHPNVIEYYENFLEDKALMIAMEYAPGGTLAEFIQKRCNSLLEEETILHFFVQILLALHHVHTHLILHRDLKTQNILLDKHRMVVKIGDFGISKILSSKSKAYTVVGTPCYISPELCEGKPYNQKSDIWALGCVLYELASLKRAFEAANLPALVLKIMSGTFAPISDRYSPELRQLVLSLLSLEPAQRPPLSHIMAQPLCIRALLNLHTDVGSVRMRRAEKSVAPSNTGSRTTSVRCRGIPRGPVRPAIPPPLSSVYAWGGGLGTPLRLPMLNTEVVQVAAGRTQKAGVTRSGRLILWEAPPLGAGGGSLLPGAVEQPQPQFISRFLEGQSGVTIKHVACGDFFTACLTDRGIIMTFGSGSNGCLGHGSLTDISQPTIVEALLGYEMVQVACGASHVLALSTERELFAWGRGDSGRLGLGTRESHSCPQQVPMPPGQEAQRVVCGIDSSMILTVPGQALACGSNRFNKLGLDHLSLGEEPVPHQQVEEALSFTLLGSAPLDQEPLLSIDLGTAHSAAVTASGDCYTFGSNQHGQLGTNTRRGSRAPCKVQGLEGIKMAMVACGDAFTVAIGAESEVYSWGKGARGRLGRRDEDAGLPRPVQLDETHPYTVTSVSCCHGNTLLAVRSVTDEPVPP
From the text: as §1

[3] = target: T3, 363 human kinases (including Aurora A/B/C) (Homo sapiens, UniProt Q9NRM7); details: LATS2; for remaining activity at 0.1 µM: 100 nM; for remaining activity at 0.1 µM / remaining activity at 0.5 µM: read-out: % Enzyme Activity (relative to DMSO controls)
T3 sequence (Q9NRM7 1-1088): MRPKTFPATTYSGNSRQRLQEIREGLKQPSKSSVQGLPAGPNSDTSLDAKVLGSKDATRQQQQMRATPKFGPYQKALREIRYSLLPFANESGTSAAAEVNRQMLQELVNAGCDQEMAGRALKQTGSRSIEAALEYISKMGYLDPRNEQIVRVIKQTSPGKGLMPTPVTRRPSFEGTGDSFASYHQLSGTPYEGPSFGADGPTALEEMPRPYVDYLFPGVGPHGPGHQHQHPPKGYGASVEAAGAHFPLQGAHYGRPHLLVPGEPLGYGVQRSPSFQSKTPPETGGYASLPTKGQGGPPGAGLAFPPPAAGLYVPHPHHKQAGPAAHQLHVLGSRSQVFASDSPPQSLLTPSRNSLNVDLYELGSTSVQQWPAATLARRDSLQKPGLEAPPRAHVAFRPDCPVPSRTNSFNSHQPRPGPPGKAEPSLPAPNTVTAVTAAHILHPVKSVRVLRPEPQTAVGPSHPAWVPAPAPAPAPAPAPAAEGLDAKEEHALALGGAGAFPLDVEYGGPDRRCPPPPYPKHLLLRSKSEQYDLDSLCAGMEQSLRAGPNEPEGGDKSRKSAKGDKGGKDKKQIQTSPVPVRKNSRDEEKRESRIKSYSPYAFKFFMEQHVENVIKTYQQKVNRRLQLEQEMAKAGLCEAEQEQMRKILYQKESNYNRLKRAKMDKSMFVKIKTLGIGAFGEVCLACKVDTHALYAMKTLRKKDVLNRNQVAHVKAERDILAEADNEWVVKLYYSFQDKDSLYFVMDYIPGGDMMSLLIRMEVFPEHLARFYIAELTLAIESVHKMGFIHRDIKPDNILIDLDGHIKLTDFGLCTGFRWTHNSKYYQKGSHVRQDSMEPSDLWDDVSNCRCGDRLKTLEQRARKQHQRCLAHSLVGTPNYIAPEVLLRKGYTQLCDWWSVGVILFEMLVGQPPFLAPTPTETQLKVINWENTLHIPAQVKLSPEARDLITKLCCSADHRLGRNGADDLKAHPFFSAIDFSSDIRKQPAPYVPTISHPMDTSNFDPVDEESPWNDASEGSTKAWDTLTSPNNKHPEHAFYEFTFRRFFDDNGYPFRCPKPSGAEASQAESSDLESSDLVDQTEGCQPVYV
From the text: as §1

[4] = target: 363 human kinases (including Aurora A/B/C) (Homo sapiens, UniProt Q9H792); details: PEAK1; for remaining activity at 0.1 µM: 100 nM; for remaining activity at 0.1 µM / remaining activity at 0.5 µM: read-out: % Enzyme Activity (relative to DMSO controls)
363 human kinases (including Aurora A/B/C) (Homo sapiens, UniProt Q9H792), sequence (Q9H792 whole entry): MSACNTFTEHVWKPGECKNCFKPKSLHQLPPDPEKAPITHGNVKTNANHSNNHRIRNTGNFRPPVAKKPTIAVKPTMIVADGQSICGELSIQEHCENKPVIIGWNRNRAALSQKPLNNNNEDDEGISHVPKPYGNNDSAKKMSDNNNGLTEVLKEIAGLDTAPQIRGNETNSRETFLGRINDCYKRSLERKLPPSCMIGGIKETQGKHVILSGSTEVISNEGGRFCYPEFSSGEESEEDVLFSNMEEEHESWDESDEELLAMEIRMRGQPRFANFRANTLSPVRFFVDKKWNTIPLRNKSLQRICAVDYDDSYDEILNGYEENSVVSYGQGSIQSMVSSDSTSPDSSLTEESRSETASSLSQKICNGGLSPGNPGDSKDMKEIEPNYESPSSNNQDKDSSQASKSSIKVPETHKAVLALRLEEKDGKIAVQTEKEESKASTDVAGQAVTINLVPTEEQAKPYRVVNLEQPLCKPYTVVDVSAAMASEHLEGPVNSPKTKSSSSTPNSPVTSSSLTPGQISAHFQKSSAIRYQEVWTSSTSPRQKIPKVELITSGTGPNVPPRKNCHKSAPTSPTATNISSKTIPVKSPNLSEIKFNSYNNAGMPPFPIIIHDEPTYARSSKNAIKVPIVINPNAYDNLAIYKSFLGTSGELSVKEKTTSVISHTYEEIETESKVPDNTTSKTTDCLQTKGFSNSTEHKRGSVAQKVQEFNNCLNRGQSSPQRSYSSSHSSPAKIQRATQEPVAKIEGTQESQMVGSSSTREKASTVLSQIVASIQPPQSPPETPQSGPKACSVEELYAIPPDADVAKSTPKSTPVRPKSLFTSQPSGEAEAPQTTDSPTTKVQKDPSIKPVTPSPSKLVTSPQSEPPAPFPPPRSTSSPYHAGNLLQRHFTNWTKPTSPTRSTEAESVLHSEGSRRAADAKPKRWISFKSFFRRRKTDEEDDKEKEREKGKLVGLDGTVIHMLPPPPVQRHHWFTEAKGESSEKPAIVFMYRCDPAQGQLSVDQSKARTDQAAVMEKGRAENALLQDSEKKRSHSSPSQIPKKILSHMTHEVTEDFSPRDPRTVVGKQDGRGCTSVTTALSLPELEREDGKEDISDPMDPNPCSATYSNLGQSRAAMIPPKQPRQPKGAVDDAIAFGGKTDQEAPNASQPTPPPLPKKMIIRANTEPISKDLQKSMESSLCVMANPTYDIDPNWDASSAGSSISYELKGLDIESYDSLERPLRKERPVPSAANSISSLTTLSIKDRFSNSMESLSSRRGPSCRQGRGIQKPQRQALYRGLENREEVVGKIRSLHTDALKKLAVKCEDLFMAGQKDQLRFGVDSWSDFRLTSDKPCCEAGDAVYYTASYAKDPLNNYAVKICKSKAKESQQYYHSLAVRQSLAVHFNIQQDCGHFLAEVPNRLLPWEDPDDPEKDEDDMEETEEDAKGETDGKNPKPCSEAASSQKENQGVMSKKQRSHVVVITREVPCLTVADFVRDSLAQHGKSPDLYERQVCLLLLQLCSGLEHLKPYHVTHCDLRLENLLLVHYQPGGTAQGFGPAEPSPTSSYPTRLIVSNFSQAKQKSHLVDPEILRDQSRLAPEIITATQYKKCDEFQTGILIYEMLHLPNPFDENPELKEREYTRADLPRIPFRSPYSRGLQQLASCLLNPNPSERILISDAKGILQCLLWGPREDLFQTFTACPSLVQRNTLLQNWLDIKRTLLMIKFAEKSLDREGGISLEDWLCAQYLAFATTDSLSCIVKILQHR
From the text: as §1

Row | Compound | remaining activity at 0.1 µM [1] | remaining activity at 0.1 µM [2] | remaining activity at 0.1 µM [3] | remaining activity at 0.1 µM [4] | remaining activity at 0.5 µM ([1]; 500 nM) | remaining activity at 0.5 µM ([2]; 500 nM) | remaining activity at 0.5 µM ([3]; 500 nM) | remaining activity at 0.5 µM ([4]; 500 nM) | % Enzyme Activity (relative to DMSO controls) ([1]; 500 nM) | % Enzyme Activity (relative to DMSO controls) ([2]; 500 nM) | % Enzyme Activity (relative to DMSO controls) ([3]; 500 nM) | % Enzyme Activity (relative to DMSO controls) ([4]; 500 nM)
1 | CCn1cc(-c2ccnc3[nH]c(-c4cccc(CN(C)C)c4)cc23)c(-c2ccc(NC(=O)N(C)C)cc2)n1 [GSK1070916] | 99.4% | 97.8% | 90.6% | 90% |  |  |  |  |  |  |  | 
2 | O=C(O)[C@]1(Cc2cccc(Nc3nccs3)n2)CC[C@@H](Oc2cccc(Cl)c2F)CC1 [MK-5108] | 101% | 81.2% | 96.8% | 30.5% | 101% | 82.2% | 81.6% | 11.6% |  |  |  | 
3 | O=C(c1cccc(Cl)c1F)N1CCN(Cc2cccc(Nc3nccs3)n2)CC1 [MK-8745] |  |  |  |  | 103% | 91.6% | 81.8% | 39.1% | 102.03% | 91.43% | 81.73% | 38.63%
